Reference: patent US10907168B2, “Jasmonic acid pathway activator” (MEDICAGO INC., priority 2015, dated 2021)

Columns and labels:
[1] = test system: C5-1 antibody; test: C5-1 antibody quantification by ELISA in agroinfiltrated leaves; assay type: in vivo, Nicotiana benthamiana
Method: Forty-two day-old N. benthamiana plants grown in greenhouse were used for the experiments. Each plant was sprayed evenly with 50 ml of 0.5 mM, 1 mM or 2 mM MeJA in water containing 0.1% (v/v) Triton X-100 (Sigma-Aldrich, Mississauga ON, Canada), or with 50 ml of 1 mM arachidonic acid (Girard et al., 2007) in the same solvent, and transferred for seven days in a Conviron growth chamber (Conviron, Winnipeg MB, Canada). Plants sprayed with 50 ml of 0.1% (v/v) Triton X-100 in water were used in parallel as negative controls to avoid confounding effects due to experimental conditions. Two or three 1-cm^2 leaf discs were harvested from the third main stem leaf (see Robert et al., 2013) after seven days, as source material for protein and RNA extraction. The leaf samples were frozen immediately in liquid nitrogen and stored at −80° C. until protein or RNA extraction. Three to five biological (plant) replicates were used for each treatment, to allow for statistical treatment of the data. Two gene vectors were used for the agroinfiltration assays: an engineered pcambia2300 vector encoding the light and heavy chains of C5-1 fused to an N-terminal signal peptide sequence for cellular secretion (see Goulet et al., 2012 for details on gene construct); and the original (“empty”) pcambia2300 binary vector (CAMBIA, Canberra, Australia) as a control for agroinfection. The two binary vectors were electroporated into A. tumefaciens strain LBA4404 and the cultures were maintained in Luria-Bertani (LB) medium supplemented with 50 μg/ml kanamycin and 50 μg/ml rifampicin. For infiltration, bacteria were grown to stable phase at 28° C. to an OD600 of 1.0 and collected by centrifugation at 2,000 g. The bacterial pellets were resuspended in 10 mM 2-[N-morpholino] ethanesulfonic acid] (MES) buffer, pH 5.8, containing 100 μM acetosyringone and 10 mM MgCl2. Leaf infiltration was performed using a needle-less syringe as described earlier (D'Aoust et al., 2009), after mixing the C5-1 antibody (or empty vector) agrobacterial suspension with an equal volume of bacterial suspension carrying a binary vector for the protein silencing suppressor p19 (Voinnet et al., 2003). Infiltrated tissue for molecular characterization was collected six days post-infection (i.e. seven days post-MeJA or arachidonate treatment), unless otherwise indicated. Three to five biological (plant) replicates were used for each treatment to allow for statistical analyses. ELISA plates for C5-1 antibody quantification (Becton Dickinson, Mississauga ON, Canada) were coated with 3.75 μg/ml goat anti-mouse heavy chain-specific IgG1 (Sigma-Aldrich) in 50 mM carbonate buffer (pH 9.0) at 4° C. for 16-18 h. The plates were washed three times in 10 mM phosphate-buffered saline containing 0.1% (v/v) Tween 20 (PBS-T), blocked through a 1-h incubation at 37° C. in 1% (w/v) casein in phosphate-buffered saline (PBS) (Pierce, Rockford Ill., USA), and washed three times in PBS-T. A standard curve was generated for each plate with 0, 4, 8, 16, 24, 32, 40 and 60 ng/ml of purified mouse IgG1 (Sigma-Aldrich). All dilutions (controls and samples) were performed in a control extract obtained from leaf tissue infiltrated with a mock inoculum so that any matrix effect was eliminated. The plates were incubated with protein samples for 1 h at 37° C., washed three times in PBS-T and then incubated with peroxidase-conjugated goat anti-mouse IgG (H+L) antibodies (0.02 μg/ml in blocking solution) (Jackson ImmunoResearch) for 1 h at 37° C. After additional washes with PBS-T, the plates were incubated with the 3,3′,5,5′-tetramethylbenzidine Sure Blue peroxidase substrate (KPL, Gaithersburg Md., USA). The reaction was stopped by the addition of 1 N HCl and the absorbance was read at 450 nm. Three independent (biological) replicates were used for each assay.

[2] = test system: C5-1 light and heavy chain mRNA; test: Real-time RT PCR of C5-1 light and heavy chain transcripts; assay type: in vivo, Nicotiana benthamiana; settings: 1 mM spray, 24 h before infiltration
[3] = ELISA, 1 mM, 24 h before infiltration

SMILES: CC/C=C\C[C@H]1C(=O)CC[C@@H]1CC(=O)OC [MeJA, methyl jasmonate]
- C5-1 yield change ([1]; 1 mM, 24 h before infiltration, antibody expressed under alfalfa plastocyanin promoter): more than twofold decrease
- C5-1 net yield as share of TSP [1, 3]: ~7 % TSP
- C5-1 net yield on a protein-relative basis [1, 3]: 70 ng antibody/μg soluble proteins
- C5-1 protein-relative yield compared with control leaves ([1]; ELISA, 1 mM, 24 h before infiltration, P<0.05): about twice
- C5-1 yield on a weight basis ([1]; ELISA, 1 mM, 24 h before infiltration, maximum yield): ~425 μg/g leaf tissue
- C5-1 yield on a weight basis ([1]; ELISA, 2 mM, 24 h before infiltration): ~325 μg/g leaf tissue
- C5-1 yield change ([1]; ELISA, sprayed 24 h post-infiltration (0.5 or 1 mM)): No yield increase
- mRNA transcript numbers for C5-1 light and heavy chains compared with control leaf extracts [2]: about twofold
